Measured values as given in patent publication US20250188062A1, “TRIAZINE COMPOUNDS AND METHODS OF MAKING AND USING THE SAME” (Athos Therapeutics, Inc., priority 2021, published 2025).

Key:
Naïve CD4+ T human cells = experiment: Cellular assay for FoxP3 induction activity (qPCR of FoxP3 mRNA); type: cell-based; conditions: CD4+ T cells activated with anti-CD3, IL-2 and TGF-β for 5 days; FoxP3 mRNA by qPCR on day 5; FIG. 3
Experimental: CD4+CD25+FOXP3+ regulatory T cells (Tregs) suppress pro-inflammatory cells and signals and are critical mediators of tolerance, inhibiting excessive inflammation and autoimmunity. Also, treatment of CD4+ T cells with interleukin 2 (IL-2) and transforming growth factor beta (TGF-β) signaling are important for FOXP3 induction and Treg formation.
Naïve CD4+ T human cells (cat. no 2W-200, Lonza) were cultured and activated with artificial antigen-presenting cells and soluble anti-CD3 (100 ng/ml) in the presence of IL-2 (300 U/ml) and TGF-β (10 ng/ml) for 5 days. On day 3, cells were transfected with an anti-sense RNA against JMJD3 (cat. No 1299001, Thermo) using Lipofectamine 2000 (cat. No 11668027, Thermo). On day 5, RNA was extracted and qPCR analysis was performed to evaluate FoxP3 mRNA levels by using the following primers: F: 5′-TCCACAACATGCGACCCCCTTTCA-3′ and R: 5′-ACAGCCCCCTTCTCGCTCTCCA-3′ having a 217 bp product. All JMJD3 inhibitors (99, 92, 93, 98, and 95) in CD4+ T cells induced 7-fold FoxP3 expression levels, thus moving towards differentiation and formation of Tregs. […] Thus, genetic or pharmacological inhibition of […] will result into FoxP3 activation and induction of Treg formation. Based on this evidence, JMJD3 inhibitors (99, 92, 93, 98, and 95)) could be used in autoimmune diseases where T-regulatory cells have therapeutic potential. There is increasing evidence and literature derived from human clinical studies (Arellano B et al., Regulatory T Cell-based Therapies for Autoimmunity, Discov Med, 22:73-80, 2016).

[1] = Stability under acidic LCMS condition; type: physicochemical; conditions: 0.1% formic acid mobile phase; hydrolyzed —OH product found
Experimental: All reactions were carried out under an atmosphere of argon. Reagents and solvents were used from commercial sources without additional purification. Hydrogenation reactions were run under a balloon. Microwave reactions were performed using a CEM Discover SP microwave synthesizer. Sample purification was conducted on a Buchi Pureflash with ELSD purification system using pre-packed commercially available silica gel columns. Thin layer chromatography (TLC) was performed on aluminium plates using Merck Kiesegel 60 F254 (230-400 mesh) fluorescent treated silica which were visualized under ultraviolet light (254 nm), or by staining with potassium permanganate or ninhydrin solution as appropriate. All Nuclear Magnetic Resonance (NMR) spectra were acquired on a Bruker Avance III HD 400 MHz NMR spectrometer; chemical shifts are reported in ppm (δ). […] All compounds purity was analyzed on Agilent 1260 Infinity II Lab LC Series HPLC (1260 Quatpum, 1260 vial autosampler, ICC column oven, 1260 DAD WR detector). […] All compounds that were evaluated in biological assay had >90% and animal study had >95% purity. […]

JMJD3 = JMJD3 (Homo sapiens, UniProt O15054); experiment: JMJD3 binding assay (Kd, affinity beads, qPCR readout); conditions: 11-point 3-fold dilution series, 0.9% DMSO, room temperature 1 hour; read-out: JMJD3 Affinity (binding constant, Kd)
Experimental: Test compounds were prepared as 111X stocks in 100% DMSO. Kd values are determined using an 11-point 3-fold compound dilution series with three DMSO control points. All compounds for Kd measurements were distributed by acoustic transfer (non-contact dispensing) in 100% DMSO. The compounds were then diluted directly into the assays such that the final concentration of DMSO was 0.9%. All reactions were performed in polypropylene 384-well plate. Each was a final volume of 0.02 ml. The assay plates were incubated at room temperature with shaking for 1 hour and the affinity beads were washed with wash buffer (lx PBS, 0.05% Tween 20). The beads were then re-suspended in elution buffer (lx PBS, 0.05% Tween 20, 0.5 μM non-biotinylated affinity ligand) and incubated at room temperature with shaking for 30 minutes. The kinase concentration in the eluates was measured by qPCR. Binding constants are calculated with a standard dose-response curve using the Hill equation:
The Hill Slope was set to −1. Curves were fitted using a non-linear least square fit with the Levenberg-Marquardt algorithm. The binding data is summarized in Table 2 where A is less than 100 nM, B is 100 to 500 nM, and C is greater than 500 nM.

THP-1 human monocytes = experiment: Cellular assay for anti-inflammatory properties: cytokine ELISA multiplex in LPS-stimulated PMA-differentiated THP-1 macrophages; type: cell-based; conditions: 1 μM, 4 hours before 100 ng/mL LPS for 4 or 24 hours; cytokine protein in media vs LPS+PMA only
Experimental: The anti-inflammatory properties of five JMJD3 inhibitors (99, 92, 93, 98, and 95, in no particularly order) were evaluated in an immune cellular assay targeting key pro-inflammatory cytokines involved in the pathogenesis of multiple autoimmune disease.
Specifically, THP-1 human monocytes were grown in 6-well plates (RPMI 1640+10% FBS+1% P/S). After washing with PBS the THP-1 cells were differentiated into macrophages using 20 nM of phorbol 12-myristate 13-acetate (PMA) for 24 hrs. 99, 92, 93, 98, and 95) (1 μM) were added into the macrophages, which are incubated for 4 hours before the addition of 100 ng/mL lipopolysaccharide (LPS) for either 4 or 24 hours. Next, the macrophages are collected via centrifugation at 1.2K rpm for 5 min and use their media to evaluate cytokine protein levels by using the Bio-rad Cytokine ELISA multiplex assay (cat. No M5000031YV). The supernatants from macrophages treated only with only LPS+PMA were collected and used as negative controls.

Chain of JMJD3 (O15054 whole entry, species assumed): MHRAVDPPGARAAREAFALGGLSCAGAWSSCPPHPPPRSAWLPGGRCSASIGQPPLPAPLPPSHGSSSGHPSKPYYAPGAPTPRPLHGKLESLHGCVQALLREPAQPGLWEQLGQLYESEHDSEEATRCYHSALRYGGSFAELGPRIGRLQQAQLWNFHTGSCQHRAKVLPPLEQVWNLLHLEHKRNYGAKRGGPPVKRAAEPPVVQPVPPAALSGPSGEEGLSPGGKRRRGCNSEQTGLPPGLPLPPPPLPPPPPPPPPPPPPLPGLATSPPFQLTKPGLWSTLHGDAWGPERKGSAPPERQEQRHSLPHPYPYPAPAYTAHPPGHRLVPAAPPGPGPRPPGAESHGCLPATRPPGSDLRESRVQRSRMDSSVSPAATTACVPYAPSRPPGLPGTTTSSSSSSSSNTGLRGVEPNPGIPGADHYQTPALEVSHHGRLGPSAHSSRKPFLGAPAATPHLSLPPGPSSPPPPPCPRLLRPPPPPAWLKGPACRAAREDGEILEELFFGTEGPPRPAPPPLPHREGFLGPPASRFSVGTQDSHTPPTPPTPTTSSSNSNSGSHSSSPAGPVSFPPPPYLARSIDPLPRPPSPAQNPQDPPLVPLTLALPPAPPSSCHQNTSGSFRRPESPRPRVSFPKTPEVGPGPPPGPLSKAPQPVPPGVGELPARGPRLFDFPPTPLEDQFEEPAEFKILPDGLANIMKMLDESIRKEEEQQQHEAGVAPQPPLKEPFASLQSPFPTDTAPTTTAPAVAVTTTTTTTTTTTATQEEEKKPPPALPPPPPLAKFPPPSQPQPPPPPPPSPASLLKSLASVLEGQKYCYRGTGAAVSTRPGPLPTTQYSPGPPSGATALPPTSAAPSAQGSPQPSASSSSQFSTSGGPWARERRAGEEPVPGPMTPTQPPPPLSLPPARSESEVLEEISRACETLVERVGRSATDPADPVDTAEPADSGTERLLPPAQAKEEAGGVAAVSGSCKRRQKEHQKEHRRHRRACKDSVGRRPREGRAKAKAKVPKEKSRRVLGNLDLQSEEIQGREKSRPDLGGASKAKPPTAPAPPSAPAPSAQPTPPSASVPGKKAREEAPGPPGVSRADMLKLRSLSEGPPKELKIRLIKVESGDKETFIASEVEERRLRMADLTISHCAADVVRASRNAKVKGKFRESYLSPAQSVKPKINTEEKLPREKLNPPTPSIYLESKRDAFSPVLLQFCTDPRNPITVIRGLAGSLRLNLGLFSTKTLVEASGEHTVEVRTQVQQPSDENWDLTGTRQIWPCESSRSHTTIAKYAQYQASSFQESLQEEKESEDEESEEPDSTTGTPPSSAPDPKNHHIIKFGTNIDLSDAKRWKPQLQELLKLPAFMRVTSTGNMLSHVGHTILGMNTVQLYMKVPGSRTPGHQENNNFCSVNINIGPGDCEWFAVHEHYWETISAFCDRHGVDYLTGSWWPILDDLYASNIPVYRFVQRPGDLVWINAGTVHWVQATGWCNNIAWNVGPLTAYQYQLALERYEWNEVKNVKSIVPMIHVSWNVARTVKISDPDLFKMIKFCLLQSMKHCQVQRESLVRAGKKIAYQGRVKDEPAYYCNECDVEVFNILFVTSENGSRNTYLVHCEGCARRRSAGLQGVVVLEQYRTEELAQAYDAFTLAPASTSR

## c1ccc2c(c1)ccn2-c1nc(OC2CCCC2)nc(-n2cccn2)n1 [Compound 95, 1-(4-(Cyclopentyloxy)-6-(1H-pyrazol-1-yl)-1,3,5-triazin-2-yl)-1H-indole]
Naïve CD4+ T human cells
  FoxP3 expression levels (induction): 7 fold
[1]
  stability under acidic LCMS condition: unstable
JMJD3
  Kd: < 100 nM
THP-1 human monocytes
  suppression of TNF-alpha (TNFA): suppression
  suppression of interleukin 1beta (IL1B): suppression
  suppression of interleukin 5 (IL5): suppression
  suppression of interleukin 6 (IL6): suppression
  suppression of interleukin 8 (IL8): suppression
  suppression of interleukin 13 (IL13): suppression
